# Measurements taken from PubChem BioAssay (NCI).
# Several values for one entry are separate records, joined by “and”; a condition that tells them apart may be missing. Equal values may be shown once.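 All cell lines were grown in 96-well plates and treated with compound for 48 hours. Here, GI50 denotes the concentration required for 50% inhibition of growth. Definition used: TGI = concentration required for complete inhibition of growth.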
# Assays:
# Assay in all cases: NCI tumour cell line growth inhibition, 48 h
# 786-0 renal = tested on: 786-0 renal
# A549 NSCLC = tested on: A549 NSCLC
# ACHN renal = tested on: ACHN renal
# BT-549 breast = tested on: BT-549 breast
# CCRF-CEM leukemia = tested on: CCRF-CEM leukemia
# COLO 205 colon = tested on: COLO 205 colon
# DLD-1 colon = tested on: DLD-1 colon
# DMS 114 small cell lung = tested on: DMS 114 small cell lung
# DMS 273 small cell lung = tested on: DMS 273 small cell lung
# DU-145 prostate = tested on: DU-145 prostate
# EKVX NSCLC = tested on: EKVX NSCLC
# HCT-15 colon = tested on: HCT-15 colon
# HL-60(TB) leukemia = tested on: HL-60(TB) leukemia
# HOP-18 NSCLC = tested on: HOP-18 NSCLC
# HOP-92 NSCLC = tested on: HOP-92 NSCLC
# HT29 colon = tested on: HT29 colon
# IGROV1 ovarian = tested on: IGROV1 ovarian
# K-562 leukemia = tested on: K-562 leukemia
# KM12 colon = tested on: KM12 colon
# KM20L2 colon = tested on: KM20L2 colon
# LOX IMVI melanoma = tested on: LOX IMVI melanoma
# M14 melanoma = tested on: M14 melanoma
# M19-MEL melanoma = tested on: M19-MEL melanoma
# MALME-3M melanoma = tested on: MALME-3M melanoma
# MCF7 breast = tested on: MCF7 breast
# MDA-MB-231 breast = tested on: MDA-MB-231 breast
# MDA-N = tested on: MDA-N
# NCI-H226 lung = tested on: NCI-H226 lung
# NCI-H460 lung = tested on: NCI-H460 lung
# NCI-H522 lung = tested on: NCI-H522 lung
# NCI/ADR-RES ovarian = tested on: NCI/ADR-RES ovarian
# OVCAR-3 ovarian = tested on: OVCAR-3 ovarian
# OVCAR-5 ovarian = tested on: OVCAR-5 ovarian
# OVCAR-8 ovarian = tested on: OVCAR-8 ovarian
# P388/ADR leukemia = tested on: P388/ADR leukemia
# RPMI-8226 leukemia = tested on: RPMI-8226 leukemia
# RXF 393 renal = tested on: RXF 393 renal
# SF-539 CNS = tested on: SF-539 CNS
# SK-MEL-2 melanoma = tested on: SK-MEL-2 melanoma
# SK-MEL-28 melanoma = tested on: SK-MEL-28 melanoma
# SK-MEL-5 melanoma = tested on: SK-MEL-5 melanoma
# SK-OV-3 ovarian = tested on: SK-OV-3 ovarian
# SNB-19 CNS = tested on: SNB-19 CNS
# SNB-75 CNS = tested on: SNB-75 CNS
# SNB-78 CNS = tested on: SNB-78 CNS
# SR leukemia = tested on: SR leukemia
# TK-10 renal = tested on: TK-10 renal
# U251 CNS = tested on: U251 CNS
# UACC-257 melanoma = tested on: UACC-257 melanoma
# UACC-62 melanoma = tested on: UACC-62 melanoma
# UO-31 renal = tested on: UO-31 renal
compound,measurement,setting,value
CCCCCCCCCCCC[C@@H](O)[C@H]1CC[C@H]([C@H](O)CCCC[C@H](O)CCCCC[C@@H](O)CC2=C[C@H](C)OC2=O)O1,TGI,786-0 renal,6.42 µM and 8.45 µM
same,GI50,A549 NSCLC,1.71 µM
same,TGI,A549 NSCLC,8.37 µM and 11.3 µM
same,GI50,ACHN renal,2.74 µM
same,TGI,ACHN renal,6.53 µM and 14.9 µM
same,TGI,BT-549 breast,24 µM
same,GI50,CCRF-CEM leukemia,1.98 µM
same,TGI,CCRF-CEM leukemia,7.58 µM
same,GI50,COLO 205 colon,3.47 µM
same,TGI,COLO 205 colon,3.52 µM
same,TGI,DLD-1 colon,11.5 µM
same,TGI,DMS 114 small cell lung,0.371 µM
same,TGI,DMS 273 small cell lung,5.55 µM
same,GI50,DU-145 prostate,7.93 µM
same,TGI,DU-145 prostate,21.3 µM
same,GI50,EKVX NSCLC,2.17 µM
same,TGI,EKVX NSCLC,6.88 µM and 12.5 µM
same,GI50,HCT-15 colon,2.83 µM
same,TGI,HCT-15 colon,5.8 µM and 9.73 µM
same,GI50,HL-60(TB) leukemia,0.548 µM and < 0.0574 µM
same,TGI,HL-60(TB) leukemia,4.24 µM and 2.13 µM
same,TGI,HOP-18 NSCLC,15.5 µM
same,TGI,HOP-92 NSCLC,6.23 µM and 9.94 µM
same,TGI,HT29 colon,5.64 µM and 8.54 µM
same,GI50,IGROV1 ovarian,3.58 µM
same,TGI,IGROV1 ovarian,6.05 µM and 8.67 µM
same,GI50,K-562 leukemia,0.302 µM
same,TGI,K-562 leukemia,7.06 µM
same,GI50,KM12 colon,1.98 µM
same,TGI,KM12 colon,5.17 µM and 12.3 µM
same,TGI,KM20L2 colon,8.96 µM
same,GI50,LOX IMVI melanoma,0.809 µM
same,TGI,LOX IMVI melanoma,4.92 µM and 4.19 µM
same,TGI,M14 melanoma,5.25 µM and 10.4 µM
same,TGI,M19-MEL melanoma,5.71 µM
same,GI50,MALME-3M melanoma,3.49 µM
same,TGI,MALME-3M melanoma,8.59 µM
same,TGI,MCF7 breast,5.13 µM and 6.79 µM
same,GI50,MDA-MB-231 breast,2.86 µM
same,TGI,MDA-MB-231 breast,7.56 µM and 10.6 µM
same,TGI,MDA-N,7.63 µM and 15.4 µM
same,GI50,NCI-H226 lung,1.53 µM
same,TGI,NCI-H226 lung,3.54 µM and 18.2 µM
same,GI50,NCI-H460 lung,2.4 µM
same,TGI,NCI-H460 lung,5.16 µM and 11.7 µM
same,TGI,NCI-H522 lung,4.45 µM
same,TGI,NCI/ADR-RES ovarian,5.42 µM and 11.2 µM
same,GI50,OVCAR-3 ovarian,1.41 µM and 1.56 µM
same,TGI,OVCAR-3 ovarian,2.71 µM and 4.05 µM
same,GI50,OVCAR-5 ovarian,1.59 µM and 5.77 µM
same,TGI,OVCAR-5 ovarian,3.05 µM and 17.9 µM
same,GI50,OVCAR-8 ovarian,3.09 µM
same,TGI,OVCAR-8 ovarian,5.8 µM and 20.3 µM
same,TGI,P388/ADR leukemia,7.53 µM
same,GI50,RPMI-8226 leukemia,1.56 µM and 0.888 µM
same,TGI,RPMI-8226 leukemia,7.92 µM and 7.46 µM
same,TGI,RXF 393 renal,8.02 µM
same,GI50,SF-539 CNS,4.18 µM
same,TGI,SF-539 CNS,5.59 µM and 11.2 µM
same,GI50,SK-MEL-2 melanoma,1.3 µM
same,TGI,SK-MEL-2 melanoma,2.6 µM and 1.68 µM
same,GI50,SK-MEL-28 melanoma,3.77 µM
same,TGI,SK-MEL-28 melanoma,6.19 µM and 9.93 µM
same,GI50,SK-MEL-5 melanoma,0.275 µM
same,TGI,SK-MEL-5 melanoma,7.16 µM and 2.21 µM
same,TGI,SK-OV-3 ovarian,11.4 µM
same,GI50,SNB-19 CNS,2.32 µM
same,TGI,SNB-19 CNS,5.45 µM and 11.4 µM
same,GI50,SNB-75 CNS,4.02 µM
same,TGI,SNB-75 CNS,7.77 µM and 10.3 µM
same,TGI,SNB-78 CNS,15.2 µM
same,GI50,SR leukemia,1.11 µM
same,TGI,SR leukemia,3.87 µM
same,GI50,TK-10 renal,3.94 µM
same,TGI,TK-10 renal,6.59 µM and 15.3 µM
same,GI50,U251 CNS,3.31 µM
same,TGI,U251 CNS,11.6 µM
same,GI50,UACC-257 melanoma,0.0724 µM
same,TGI,UACC-257 melanoma,5.68 µM and 3.36 µM
same,TGI,UACC-62 melanoma,5.14 µM and 6.06 µM
same,GI50,UO-31 renal,1.3 µM
same,TGI,UO-31 renal,5.11 µM and 7.51 µM
